In paper PMC12085125 (Drug Design, Development and Therapy, 2025):

Experiments:
[1] = test system: tofacitinib metabolism in rat liver microsomes (enzyme not specified); experiment: Inhibition of tofacitinib metabolism in rat liver microsomes; format: in vitro ADME; settings: probe tofacitinib
[2] = cited from earlier work
[3] = healthy male adults; cited from earlier work
[4] = test system: cytochrome P450 2C19 (CYP2C19); settings: cited from earlier work
[5] = test system: cytochrome P450 3A4 (CYP3A4); settings: cited from earlier work
[6] = in vitro; settings: Sprague-Dawley, rat, liver microsomes
[7] = test system: rat liver microsomes; settings: metabolism to M8, n=3

| IC50 at 30 min [1] [nM] | SMILES | increase of AUC of tofacitinib when combined [3] [%] | increase of Cmax of tofacitinib when combined [3] [%] | further results |
| --- | --- | --- | --- | --- |
| 1140 | COc1ccc2c(c1)C(=O)N(CCc1ccc(S(=O)(=O)NC(=O)NC3CCCCC3)cc1)C(=O)C2(C)C [Gliquidone] | – | – | half-life ([2]; after oral administration): approximately 1.5 hours |
| 4060 | CC#CCn1c(N2CCC[C@@H](N)C2)nc2c1c(=O)n(Cc1nc(C)c3ccccc3n1)c(=O)n2C [Linagliptin] | – | – | bioavailability [2]: approximately 30% |

The remaining lines, values behind:

| SMILES | IC50 at 30 min [1] [nM] | increase of AUC of tofacitinib when combined [3] [%] | increase of Cmax of tofacitinib when combined [3] [%] | further results |
| --- | --- | --- | --- | --- |
| CC(=O)N1CCN(c2ccc(OCC3COC(Cn4ccnc4)(c4ccc(Cl)cc4Cl)O3)cc2)CC1 (stereo not drawn) [Ketoconazole] | – | 103 | 16 | – |
| C[C@@H]1CCN(C(=O)CC#N)C[C@@H]1N(C)c1ncnc2[nH]ccc12 [Tofacitinib] | – | – | – | share processed by CYP2C19 [4]: ~20%; share processed by CYP3A4 [5]: approximately 50%; Km at 30 min [6]: 37.3 µM; Vmax of tofacitinib enzyme kinetics [7]: 5.482 pmol/min/mg |
| OC(Cn1cncn1)(Cn1cncn1)c1ccc(F)cc1F [Fluconazole] | – | 79 | 27 | – |
